Assay results published in paper PMC4673153, “Discovery of benzo[e]pyridoindolones as kinase inhibitors that disrupt mitosis exit while erasing AMPK-Thr172 phosphorylation on the spindle” (Oncotarget, 2015).
Where a name gives a salt, the structure may show the parent alone.

How the values were obtained:
Assay type in all cases: biochemical
[1] = biological target: T1, aurora B kinase (Homo sapiens, UniProt Q96GD4); assay: in vitro kinase assay, recombinant enzyme (MRC Dundee)
T1 construct: gene AURKB

[2] = biological target: T2, Tak1 (Homo sapiens, UniProt O43318); assay: as above
T2 construct: gene MAP3K7
T2 sequence (O43318 1-606): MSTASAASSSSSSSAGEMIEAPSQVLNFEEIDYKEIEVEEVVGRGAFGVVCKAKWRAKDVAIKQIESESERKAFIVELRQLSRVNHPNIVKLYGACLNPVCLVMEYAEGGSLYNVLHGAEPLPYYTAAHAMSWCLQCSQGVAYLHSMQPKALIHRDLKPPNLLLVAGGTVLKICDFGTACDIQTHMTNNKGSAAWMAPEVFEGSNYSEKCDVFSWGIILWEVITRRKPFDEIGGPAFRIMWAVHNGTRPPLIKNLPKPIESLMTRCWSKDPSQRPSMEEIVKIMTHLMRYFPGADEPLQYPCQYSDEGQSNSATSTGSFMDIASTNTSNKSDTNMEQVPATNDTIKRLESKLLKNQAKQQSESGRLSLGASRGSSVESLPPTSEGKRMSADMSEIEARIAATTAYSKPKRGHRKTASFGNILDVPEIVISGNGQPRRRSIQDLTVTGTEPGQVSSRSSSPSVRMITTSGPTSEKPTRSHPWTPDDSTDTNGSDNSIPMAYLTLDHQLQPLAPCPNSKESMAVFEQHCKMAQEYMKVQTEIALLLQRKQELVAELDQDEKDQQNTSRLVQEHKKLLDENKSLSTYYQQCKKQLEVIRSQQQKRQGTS
T2 sequence (Q15750 1-504 partner): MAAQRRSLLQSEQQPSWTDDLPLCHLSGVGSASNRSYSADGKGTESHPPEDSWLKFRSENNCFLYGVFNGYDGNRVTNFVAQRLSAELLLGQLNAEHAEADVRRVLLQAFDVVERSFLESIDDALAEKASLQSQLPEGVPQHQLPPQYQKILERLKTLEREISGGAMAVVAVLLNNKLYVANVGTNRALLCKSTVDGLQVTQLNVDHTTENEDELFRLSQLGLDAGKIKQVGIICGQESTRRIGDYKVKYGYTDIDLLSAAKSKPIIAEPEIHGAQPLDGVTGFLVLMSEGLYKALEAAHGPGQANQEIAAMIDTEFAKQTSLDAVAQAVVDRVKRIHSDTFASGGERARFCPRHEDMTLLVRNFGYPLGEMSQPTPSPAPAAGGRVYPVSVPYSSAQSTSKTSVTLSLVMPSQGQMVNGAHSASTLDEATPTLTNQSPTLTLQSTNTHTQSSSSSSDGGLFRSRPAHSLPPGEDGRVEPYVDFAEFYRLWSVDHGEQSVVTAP

[3] = biological target: T3, CaMKKβ (Homo sapiens, UniProt Q96RR4); assay: kinase panel profiling at […], recombinant enzyme (MRC Dundee)
T3 construct: gene CAMKK2

[4] = biological target: T4, Flt1/V-EGFR1 (Homo sapiens, UniProt P17948); assay: in vitro kinase assay, recombinant enzyme (MRC Dundee)
T4 sequence (P17948 781-1338 limits assumed): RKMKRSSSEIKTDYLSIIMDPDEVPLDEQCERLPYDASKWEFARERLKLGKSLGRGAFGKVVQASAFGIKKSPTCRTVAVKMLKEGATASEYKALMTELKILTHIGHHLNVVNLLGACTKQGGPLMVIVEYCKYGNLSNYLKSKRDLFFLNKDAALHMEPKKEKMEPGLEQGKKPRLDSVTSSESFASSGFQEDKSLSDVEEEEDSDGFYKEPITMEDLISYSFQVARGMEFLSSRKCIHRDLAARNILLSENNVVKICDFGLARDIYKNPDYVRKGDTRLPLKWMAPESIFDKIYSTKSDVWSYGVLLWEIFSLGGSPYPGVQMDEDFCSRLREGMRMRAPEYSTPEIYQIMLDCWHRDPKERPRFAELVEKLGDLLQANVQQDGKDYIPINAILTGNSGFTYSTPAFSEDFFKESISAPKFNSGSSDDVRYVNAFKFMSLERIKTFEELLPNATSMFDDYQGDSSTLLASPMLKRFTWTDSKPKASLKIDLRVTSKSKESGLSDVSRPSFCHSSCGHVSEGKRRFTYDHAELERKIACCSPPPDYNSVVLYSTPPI

[5] = biological target: Melk (Homo sapiens, UniProt Q14680); assay: as above
[6] = biological target: T5, Chk1 (Homo sapiens, UniProt O14757); assay: as above
T5 construct: gene CHEK1
T5 sequence (O14757 1-476): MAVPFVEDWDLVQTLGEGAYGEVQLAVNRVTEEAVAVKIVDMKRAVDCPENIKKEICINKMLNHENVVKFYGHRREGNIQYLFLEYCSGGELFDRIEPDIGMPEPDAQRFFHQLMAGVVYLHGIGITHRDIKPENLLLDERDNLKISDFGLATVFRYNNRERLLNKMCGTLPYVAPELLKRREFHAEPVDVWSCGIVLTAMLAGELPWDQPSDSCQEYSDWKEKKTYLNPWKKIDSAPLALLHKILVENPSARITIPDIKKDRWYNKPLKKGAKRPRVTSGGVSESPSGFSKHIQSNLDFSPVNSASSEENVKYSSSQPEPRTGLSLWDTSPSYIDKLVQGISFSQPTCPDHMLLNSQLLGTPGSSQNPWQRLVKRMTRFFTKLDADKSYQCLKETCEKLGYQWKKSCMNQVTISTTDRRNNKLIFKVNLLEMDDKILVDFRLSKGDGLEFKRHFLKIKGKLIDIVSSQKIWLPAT

[7] = biological target: T6, Chk2 (Homo sapiens, UniProt O96017); assay: as above
T6 construct: gene CHEK2

[8] = biological target: Sik2 (Homo sapiens, UniProt Q9H0K1); assay: as above
[9] = biological target: phosphorylase kinase; assay: as above
[10] = biological target: T7, ARK5/Nuak1 (Homo sapiens, UniProt O60285); assay: as above
T7 sequence (O60285 1-661): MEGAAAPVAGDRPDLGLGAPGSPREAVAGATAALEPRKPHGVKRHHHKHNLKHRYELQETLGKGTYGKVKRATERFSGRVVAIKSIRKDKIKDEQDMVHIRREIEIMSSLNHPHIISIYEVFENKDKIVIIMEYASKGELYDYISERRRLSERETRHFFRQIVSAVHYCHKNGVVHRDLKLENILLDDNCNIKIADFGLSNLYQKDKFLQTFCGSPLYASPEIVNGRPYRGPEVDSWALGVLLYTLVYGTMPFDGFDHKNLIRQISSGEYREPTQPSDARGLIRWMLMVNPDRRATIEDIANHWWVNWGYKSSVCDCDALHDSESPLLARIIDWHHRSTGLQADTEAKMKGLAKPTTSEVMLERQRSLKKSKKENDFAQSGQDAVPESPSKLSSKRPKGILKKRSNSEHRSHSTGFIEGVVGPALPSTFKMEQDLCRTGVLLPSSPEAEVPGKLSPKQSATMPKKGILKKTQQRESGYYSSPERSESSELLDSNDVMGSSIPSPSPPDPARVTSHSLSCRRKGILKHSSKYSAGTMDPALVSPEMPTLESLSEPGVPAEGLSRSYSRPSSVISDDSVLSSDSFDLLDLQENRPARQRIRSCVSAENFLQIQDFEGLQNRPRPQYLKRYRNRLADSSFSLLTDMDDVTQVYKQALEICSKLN

T3 sequence (Q96RR4 2-588): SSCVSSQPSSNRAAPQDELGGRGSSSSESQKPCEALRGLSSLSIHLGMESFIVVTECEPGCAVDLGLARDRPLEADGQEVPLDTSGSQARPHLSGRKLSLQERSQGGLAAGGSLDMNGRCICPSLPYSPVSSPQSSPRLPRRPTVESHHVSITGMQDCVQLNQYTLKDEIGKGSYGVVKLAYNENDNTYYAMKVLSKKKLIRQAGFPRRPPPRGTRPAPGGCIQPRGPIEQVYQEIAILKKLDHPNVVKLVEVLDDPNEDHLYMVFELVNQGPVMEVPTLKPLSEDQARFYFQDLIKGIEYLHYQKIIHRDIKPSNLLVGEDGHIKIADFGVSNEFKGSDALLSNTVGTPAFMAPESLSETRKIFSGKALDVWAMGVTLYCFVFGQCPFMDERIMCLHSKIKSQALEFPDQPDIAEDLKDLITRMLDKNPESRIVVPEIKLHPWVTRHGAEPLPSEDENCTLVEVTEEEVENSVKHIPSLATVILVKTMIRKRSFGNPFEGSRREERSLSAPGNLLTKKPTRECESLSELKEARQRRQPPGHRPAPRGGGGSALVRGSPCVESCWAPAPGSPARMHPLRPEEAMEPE
Melk, sequence (Q14680 whole entry): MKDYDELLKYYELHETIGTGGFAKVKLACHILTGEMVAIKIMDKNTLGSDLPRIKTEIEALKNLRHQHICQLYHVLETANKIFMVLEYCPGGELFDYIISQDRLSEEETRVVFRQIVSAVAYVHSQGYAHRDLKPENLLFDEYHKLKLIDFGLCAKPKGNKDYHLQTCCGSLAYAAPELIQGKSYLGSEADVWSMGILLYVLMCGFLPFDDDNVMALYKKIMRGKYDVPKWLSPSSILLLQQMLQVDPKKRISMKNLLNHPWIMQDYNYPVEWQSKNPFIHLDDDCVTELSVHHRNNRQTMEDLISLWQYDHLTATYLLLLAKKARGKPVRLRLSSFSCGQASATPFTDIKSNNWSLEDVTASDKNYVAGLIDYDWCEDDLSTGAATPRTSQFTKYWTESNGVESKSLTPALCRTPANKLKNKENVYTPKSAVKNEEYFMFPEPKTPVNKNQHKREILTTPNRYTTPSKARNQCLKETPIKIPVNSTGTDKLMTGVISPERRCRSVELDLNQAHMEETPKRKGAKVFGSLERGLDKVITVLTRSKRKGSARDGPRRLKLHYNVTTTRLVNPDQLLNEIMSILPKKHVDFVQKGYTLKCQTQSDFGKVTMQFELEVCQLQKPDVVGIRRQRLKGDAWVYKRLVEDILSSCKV
T6 sequence (O96017 whole entry): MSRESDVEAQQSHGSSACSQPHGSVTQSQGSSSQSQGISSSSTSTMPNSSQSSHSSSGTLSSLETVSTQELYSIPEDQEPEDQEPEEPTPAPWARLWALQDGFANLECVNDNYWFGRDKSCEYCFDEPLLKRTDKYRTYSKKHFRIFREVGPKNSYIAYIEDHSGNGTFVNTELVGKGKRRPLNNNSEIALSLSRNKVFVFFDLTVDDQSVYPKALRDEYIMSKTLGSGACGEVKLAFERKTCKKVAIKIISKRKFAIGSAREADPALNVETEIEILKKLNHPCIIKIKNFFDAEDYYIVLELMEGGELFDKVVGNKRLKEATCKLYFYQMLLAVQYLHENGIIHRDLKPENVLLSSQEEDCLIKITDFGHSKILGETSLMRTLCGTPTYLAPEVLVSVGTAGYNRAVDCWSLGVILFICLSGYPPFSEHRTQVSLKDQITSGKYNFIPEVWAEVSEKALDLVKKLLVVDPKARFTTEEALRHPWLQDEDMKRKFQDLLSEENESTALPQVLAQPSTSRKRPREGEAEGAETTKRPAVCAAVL
T1 sequence (Q96GD4 whole entry): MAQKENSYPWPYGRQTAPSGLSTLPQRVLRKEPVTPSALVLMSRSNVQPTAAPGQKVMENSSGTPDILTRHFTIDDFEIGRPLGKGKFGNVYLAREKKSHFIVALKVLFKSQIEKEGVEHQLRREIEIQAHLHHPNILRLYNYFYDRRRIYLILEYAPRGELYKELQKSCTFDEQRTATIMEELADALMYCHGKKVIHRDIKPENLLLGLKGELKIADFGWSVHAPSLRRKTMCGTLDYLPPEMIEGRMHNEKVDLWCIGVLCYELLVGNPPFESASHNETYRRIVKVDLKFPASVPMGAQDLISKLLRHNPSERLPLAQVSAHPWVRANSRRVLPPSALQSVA
Sik2, sequence (Q9H0K1 whole entry): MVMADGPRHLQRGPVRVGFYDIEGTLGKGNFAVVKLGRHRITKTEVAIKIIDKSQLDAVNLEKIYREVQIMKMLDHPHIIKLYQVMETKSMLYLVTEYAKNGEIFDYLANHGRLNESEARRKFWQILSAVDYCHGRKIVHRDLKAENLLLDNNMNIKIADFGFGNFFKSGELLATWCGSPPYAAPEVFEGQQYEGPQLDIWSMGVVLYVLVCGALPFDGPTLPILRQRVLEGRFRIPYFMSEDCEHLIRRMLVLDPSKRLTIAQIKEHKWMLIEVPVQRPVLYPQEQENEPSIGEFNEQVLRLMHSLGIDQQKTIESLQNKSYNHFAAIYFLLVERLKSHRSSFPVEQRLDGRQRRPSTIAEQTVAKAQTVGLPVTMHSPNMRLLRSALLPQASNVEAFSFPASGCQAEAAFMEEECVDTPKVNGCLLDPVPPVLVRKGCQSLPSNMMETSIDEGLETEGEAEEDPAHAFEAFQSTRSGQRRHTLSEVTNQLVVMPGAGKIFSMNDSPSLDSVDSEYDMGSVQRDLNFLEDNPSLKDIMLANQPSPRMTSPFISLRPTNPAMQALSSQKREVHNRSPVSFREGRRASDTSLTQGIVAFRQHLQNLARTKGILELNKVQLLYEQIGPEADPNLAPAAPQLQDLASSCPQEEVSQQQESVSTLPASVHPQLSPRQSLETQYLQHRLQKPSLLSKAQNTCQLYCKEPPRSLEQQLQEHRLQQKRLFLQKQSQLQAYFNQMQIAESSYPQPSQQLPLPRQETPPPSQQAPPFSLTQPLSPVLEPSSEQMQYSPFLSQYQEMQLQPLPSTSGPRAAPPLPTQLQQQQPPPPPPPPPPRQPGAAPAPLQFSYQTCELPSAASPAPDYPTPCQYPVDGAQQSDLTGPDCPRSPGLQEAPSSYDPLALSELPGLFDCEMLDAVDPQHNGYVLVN

Cc1c[nH]c(=O)c2c1[nH]c1ccc3cc(OCCN4CCCCC4)ccc3c12 [C5M, 3-(2-(Piperidin-1-yl)ethoxy)-8-methyl-7H, 10H-benzo[e]pyrido(4,3-b)indol-11-one maleate]
IC50 [1]: 118 nM | IC50 [2]: 6 nM | kinase panel profiling at 250 nM, recombinant enzyme (MRC Dundee) [3]: Among the fifteen best targets, we noted the presence of several AMPK-related kinases | IC50 [4]: 37 nM | IC50 [5]: 13.3 nM | IC50 [6]: 13.6 nM | IC50 [7]: 13.6 nM | IC50 [8]: 12.4 nM | IC50 [9]: 18.5 nM | IC50 [10]: 4.8 nM
